Tested on: patient with DM1 and suspected hyporeninemic hypoaldosteronism
Assay: Case report: fludrocortisone therapeutic test
Type: in vivo, human
Settings: fludrocortisone 0.2 mg/day
Procedure: Case presentation: A person, diagnosed with type 1 diabetes mellitus (DM1) for 12 years, presented progressive of walking difficulties 5 years ago, associated with dizziness, weakness, and tachycardia at rest with hypotension. […] Neuropathy Disability Score (NDS) was carried out, presenting 10 out of 10 points, classified as severe impairment. Because of an extremely significant clinical condition, with no evidence of microvascular compromise, hyporeninemic hypoaldosteronism (HH) was investigated. […] Subsequently, the patient was exposed to the exogenous ACTH test, with the administration of ACTH 250mcg intravenous and dosages of serum cortisol and aldosterone at times 0‘, 30‘, 60‘. There was an elevation of serum cortisol to levels above the limit of normality (18 mcg/dL), discarding primary adrenal insufficiency, and aldosterone levels at the lower limit of normal (attached tables). Even tests without confirmation, the use of fludrocortisone 0.2 mg/day was started as a therapeutic test.

C[C@]12CCC(=O)C=C1CC[C@H]1[C@@H]3CC[C@](O)(C(=O)CO)[C@@]3(C)C[C@H](O)[C@@]12F [fludrocortisone]
clinical course: improvement of the blood pressure (BP) and dizziness

From PMC5907308, “21st Brazilian Diabetes Society Congress” (Diabetology & Metabolic Syndrome, 2018)
